Consider one compound from article PMC4344499 (2015).

The experiment has as its system Z33 G4 (radiolabeled) (DNA, G4) AAAGTGATGGTGGTGGGGGAAGGATTTTCGAAC
Put plainly: EMSA, displacement of bound DHX36 protein. The following applies: 100 mM KCl, 10 mM NaCl, 3.3 mM MgCl2, 10 mM EDTA; K-Res buffer pH 7.8, 37 °C, no ATP; DHX36 (4 nM) displaced from 4 nM G4; poly(dI:dC) present. For orientation: Mobility shift assays separate free from complexed probe on a gel.

Take `NCCOc1cc(C(=O)Nc2cc(OCCN)c3ccccc3n2)nc(C(=O)Nc2cc(OCCN)c3ccccc3n2)c1`: the IC50 is on record as 33 nM.

What is called IC50 is the midpoint of a concentration-inhibition curve. Low values mean inhibition by little substance, high ones a need for much substance.
